Test results reported in US7855076B2, “Use of discoidin domain receptor 1 (DDR1) and agents that affect the DDR1/collagen pathway” (The United States of America as represented by the …, priority 2002, dated 2010).

Legend:
Format in all cases: cell-based, human
DDR1 [1] = test: DDR1 autophosphorylation and MAP kinase phosphorylation in iDC and mDC; details: DCs, TNF-α stimulation
Experimental: To measure the kinetics of DDR1autophosphorylation, 1×10^7 iDC or TNF-α-induced mDCs were plated on dishes, serum-starved in RPMI 1640 containing 1% FCS for 10 hours, and subsequently activated with agonistic anti-DDR1 IgM (5 μg/ml) or control IgM (5 ug/ml) for varous times. Cell lysates were prepared, DDR1 was immunoprecipitated using anti-DDR1 Ab (C-20), and tyrosine-phosphorylation of DDR1 was analyzed by Western blotting using a mouse monoclonal anti-phosphotyrosine IgG and a sheep anti-mouse IgG coupled with horseradish peroxidase. Peroxidase activity was visualized by the Enhanced Chemiluminescence Detection System (Amersham).
To detect phosphorylation of MAP kinases, ATF2, or MKK3/6, iDC and mDC were activated with agonistic 513 anti-DDR1 IgM or control IgM for varous times. Since TNF-α is known to activate p38 MAP kinase (Ono and Han, Cell. Signal. 12:1-13, 2000), cells were washed 6 times with PBS before activation in order to minimize the effect of TNF-α. Twenty μl of cell lysates were directly mixed with 20 μl of sample buffer and then analyzed.
Target sequence in this assay (Q08345 19-417 limits assumed): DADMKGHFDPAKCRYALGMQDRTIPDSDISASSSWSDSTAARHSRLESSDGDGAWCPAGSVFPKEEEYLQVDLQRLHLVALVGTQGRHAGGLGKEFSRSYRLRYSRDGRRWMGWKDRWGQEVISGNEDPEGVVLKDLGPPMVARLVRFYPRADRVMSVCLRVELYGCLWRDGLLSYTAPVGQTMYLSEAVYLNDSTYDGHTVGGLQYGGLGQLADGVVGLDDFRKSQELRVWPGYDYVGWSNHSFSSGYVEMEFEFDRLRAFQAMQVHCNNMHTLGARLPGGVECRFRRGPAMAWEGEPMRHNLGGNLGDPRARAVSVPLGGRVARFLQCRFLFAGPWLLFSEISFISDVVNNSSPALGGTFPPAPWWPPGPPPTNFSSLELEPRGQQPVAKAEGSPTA

DDR1 [2] = test: Cell-surface DDR1 expression on PMN by flow cytometry
Experimental: PMN were incubated in presence of IFN-γ or GM-CSF for 24 hours and the expression of cell-surface DDR1 was measured by flow cytometry using an antibody raised against the extracellular domain of the receptor. One hundred thousand cells were suspended in 50 μl of cold PBS containing 0.1% NaN3, […] BSA and 200 μg/ml human IgG in a Falcon 2052, tube, and incubated for 10 minutes on ice. One μg of anti-DDR1 rabbit polyclonal antibody raised aginst the N-terminus of DDR1 (Transgenic, Inc., Kumamoto, Japan), or control mouse IgG was added to each tube and the cells were incubated for another 15 minutes on ice. The cells were washed with PBS, and then incubated with 1 μg of FITC-conjugated goat anti-mouse IgG for 15 minutes on ice. At the end of incubation, PI was added to each tube (100 μM). The cells were washed by PBS, and subsequently analyzed by using a FACS scan (Becton Dickinson). Dead cells, determined by the incorporation of PI, were gated out. Results were processed by using the Cellquest software (Becton Dickinson).

MCP-1 mRNA = MCP-1 mRNA expression in PMA-treated THP-1 cells by Northern blotting
Experimental: The effect of collagen-activation on the expression of MCP-1 mRNA in PMA-treated parental, mock-transduced, DDR1a-overexpressing, and DDR1b-overexpressing THP-1 cells was measured by Northern blotting. THP-1 cells were cultured at the cell density of 5×10^6, cells/ml in the complete medium in the presence of 10 nM PMA in 6 well tissue culture plates that were either uncoated or collagen-coated. Total RNA was extracted from each culture by using TRIZOL reagent® and Northern blot analysis was performed as described (Yoshimura, J. Immunol. 150:5025, 1993). IL-1β cDNA was obtained by RT-PCR from a human monocyte cDNA library using the following primer pair: sense primer 5′-[…]-3′ (SEQ ID NO: 13) and anti-sense primer 5′-[…]-3′ (SEQ ID NO: 14). Each cDNA was labeled with [α-^32P]dCTP using Rediprime™ II random prime labeling system (Amersham Pharmacia Biotech).

Row | Substance | activation of ERK1, ERK2, JNK, MKK3/6 (DDR1 [1]) | IFNγ-induced DDR1 expression (DDR1 [2]) | level of MCP-1 mRNA expression (MCP-1 mRNA; PMA-treated DDR1b-overexpressing cells on collagen-coated plates) | MCP-1 mRNA expression (MCP-1 mRNA; PMA-treated parental cells)
1 | TNF-α | rapidly activated | almost completely inhibited | – | –
2 | collagen | – | – | rapidly up-regulated | no effect
